In patent publication US10039288B2, “Pathogenic infections” (University of Surrey, priority 2015, dated 2018):
Values after ≈ are worked out from the molar mass of the structure shown. Values joined by “and” are separate entries in the source; they are usually repeats but may differ in a detail not shown here. Equal entries are not always repeated. Where two headings read alike, the source gives them in different places.

How the values were obtained:
Plasmopara viticola [1] = experiment: In vitro zoospore germination and activity, MIC(100%); type: cell-based; details: for Minimal inhibitory concentration (MIC(100%)) Plasmopara viticola: zoospore germination and activity, in vitro; for MIC: Plasmopara viticola, read-out: Minimal inhibitory concentration (MIC(100%)) Plasmopara viticola
Plasmopara viticola [2] = experiment: Preliminary screening of crude extracts and compounds (Table 3)
Phytophthora infestans = type: cell-based; details: germination, in vitro
P. viticola = test system: P. viticola; parameters: species or system Plasmopara viticola
[3] = 0.147% mass/volume, Isopropanol

C=C[C@@](C)(O)CC[C@H]1C(=C)C[C@H](O)[C@H]2C(C)(C)CCC[C@]12C [Compound 1, larixol]
Minimal inhibitory concentration (MIC(100%)) Plasmopara viticola (Plasmopara viticola [1]): 16 ppm | Activity (Plasmopara viticola [2]; sample 0.0147% mass/volume): 36.3% | Activity (Plasmopara viticola [2]; sample 0.074% mass/volume): 100% | Activity (Plasmopara viticola [2]; sample 0.147% mass/volume): 99.5% | Minimal inhibitory concentration (MIC(100%)) Phytophthora infestans (Phytophthora infestans): 500 ppm | Efficacy (%) (P. viticola; 0.0147% mass/volume, Isopropanol): 36.3% | Efficacy (%) (P. viticola; 0.025% mass/volume, Ethanol): 91.2% | Efficacy (%) (P. viticola; 0.074% mass/volume, Isopropanol): 100.0% | Efficacy (%) (P. viticola; 0.1% mass/volume, Ethanol): 98.8% | Efficacy (%) (P. viticola; [3]): 99.5%

C=CC(C)(O)CCC1C(=C)CC(OC(C)=O)C2C(C)(C)CCCC12C (stereo not drawn) [Compound 2, larixyl acetate]
Minimal inhibitory concentration (MIC(100%)) Plasmopara viticola (Plasmopara viticola [1]): 4 ppm | Activity (Plasmopara viticola [2]; sample 0.012% mass/volume): 69.2% | Activity (Plasmopara viticola [2]; sample 0.12% mass/volume): 100% | Minimal inhibitory concentration (MIC(100%)) Phytophthora infestans (Phytophthora infestans): 125 ppm | Efficacy (%) (P. viticola; 0.01% mass/volume, Isopropanol): 24.5% | Efficacy (%) (P. viticola; 0.012% mass/volume, Ethanol): 69.2% | Efficacy (%) (P. viticola; 0.025% mass/volume, Ethanol): 83.3% | Efficacy (%) (P. viticola; 0.05% mass/volume, Ethanol): 98.4% | Efficacy (%) (P. viticola; 0.1% mass/volume, Ethanol): 99.9% and 99.4% | Efficacy (%) (P. viticola; 0.12% mass/volume, Ethanol): 100.0% | Efficacy (%) (P. viticola; [3]): 99.5%

COc1cc(C[C@H]2CO[C@H](c3ccc(O)c(OC)c3)[C@H]2CO)ccc1O [Compound 3, (+)-lariciresinol]
MIC (Plasmopara viticola [1]): 250 µg/mL (≈ 694 µM) | Activity (Plasmopara viticola [2]; sample 0.01% mass/volume): 14.4% | Activity (Plasmopara viticola [2]; sample 0.1% mass/volume): 94.1% | Minimal inhibitory concentration (MIC(100%)) Phytophthora infestans (Phytophthora infestans): No activity

COc1cc(C[C@H]2CO[C@H](c3ccc(O)c(OC)c3)[C@H]2COC(C)=O)ccc1O [Compound 4, (+)-lariciresinol acetate]
MIC (Plasmopara viticola [1]): 125 µg/mL | Activity (Plasmopara viticola [2]; sample 0.008% mass/volume): 13.1% | Activity (Plasmopara viticola [2]; sample 0.036% mass/volume): 78.8% | Activity (Plasmopara viticola [2]; sample 0.08% mass/volume): 92.4% | Minimal inhibitory concentration (MIC(100%)) Phytophthora infestans (Phytophthora infestans): No actvity
